Test results: US20220053762A1, “HERBICIDAL COMPOSITIONS” (Bayer Aktiengesellschaft, priority 2018, published 2022)

System: harmful plant species
Assay: Specific trial examples: binary compositions applied by the post-emergence method, synergistic effect according to Colby (Tables 3.1-3.2)
Assay type: in vivo
Description: When the observed efficacies already exceed the formal sum total of the values of the tests with individual applications, they also exceed the expected value according to Colby, which is calculated using the formula below and is likewise regarded as an indication of synergism (cf. S. R. Colby; in Weeds 15 (1967) p. 20 to 22):
Seeds or rhizome pieces of mono- and dicotyledonous weeds are placed in sandy loam in pots, covered with soil and grown in a greenhouse under good growth conditions (temperature, air humidity, water supply). Three weeks after sowing, the test plants are treated at the three-leaf stage with the compositions according to the invention. The compositions according to the invention formulated as spray powders or as emulsion concentrates are sprayed onto the green plant parts in various dosages with an application rate of 300 to 800 l/ha of water (equivalent).
The sum total of the effects of the individual applications is reported under E^A; Expected values according to Colby are each reported under E^C.
The rating period is reported in days after application (DAT).

## C=C[C@]1(C(=O)N[C@H]2CO[C@@H](C(=O)NS(=O)(=O)C(F)(F)F)C2)CC(c2cc(F)cc(F)c2)=NO1 (relative stereo) [Compound A1, (5S)-3-(3,5-difluorophenyl)-N-[rel-(3R,5R)-5-(trifluoromethylsulfonylcarbamoyl)tetrahydrofuran-3-yl]-5-vinyl-4H-isoxazole-5-carboxamide]
1.67 g a.i./ha
  Herbicidal action 28 DAT against Lolium rigidum (resistant biotype): 0%
  Herbicidal action 28 DAT against Lolium rigidum (sensitive biotype): 0%
5 g a.i./ha
  Herbicidal action 28 DAT against Alopecurus myosuroides (sensitive biotype): 0%
  Herbicidal action 28 DAT against Avena fatua: 50%
  Herbicidal action 28 DAT against Bromus sterilis: 0%
  Herbicidal action 28 DAT against Centaurea cyanus: 20%
  Herbicidal action 28 DAT against Euphorbia heterophylla: 0%
  Herbicidal action 28 DAT against Galium aparine: 0%
  Herbicidal action 28 DAT against Hordeum murinum: 0%
  Herbicidal action 28 DAT against Ipomoea purpurea: 0%
  Herbicidal action 28 DAT against Lamium purpureum: 20%
  Herbicidal action 28 DAT against Lolium rigidum (resistant biotype): 0%
  Herbicidal action 28 DAT against Lolium rigidum (sensitive biotype): 0%
  Herbicidal action 28 DAT against Phalaris minor: 0%
  Herbicidal action 28 DAT against Polygonum convolvulus: 0%
  Herbicidal action 28 DAT against Polygonum convulvulus: 50%
  Herbicidal action 28 DAT against Raphanus raphanistrum: 80%
  Herbicidal action 28 DAT against Stellaria media: 0%
  Herbicidal action 28 DAT against Veronica hederifolia: 0%
  Herbicidal action 28 DAT against Viola tricolor: 0%
15 g a.i./ha
  Herbicidal action 28 DAT against Alopecurus myosuroides (resistant biotype): 60%
  Herbicidal action 28 DAT against Alopecurus myosuroides (sensitive biotype): 60%
  Herbicidal action 28 DAT against Centaurea cyanus: 30%
  Herbicidal action 28 DAT against Euphorbia heterophylla: 10%
  Herbicidal action 28 DAT against Galium aparine: 30%
  Herbicidal action 28 DAT against Ipomoea purpurea: 0%
  Herbicidal action 28 DAT against Lamium purpureum: 50%
  Herbicidal action 28 DAT against Lolium rigidum (resistant biotype): 0%
  Herbicidal action 28 DAT against Lolium rigidum (sensitive biotype): 0%
  Herbicidal action 28 DAT against Phalaris minor: 60%
  Herbicidal action 28 DAT against Polygonum convolvulus: 70%
  Herbicidal action 28 DAT against Polygonum convulvulus: 93%
  Herbicidal action 28 DAT against Viola tricolor: 20%
28 DAT, g a.i./ha: r22 270, r23 90, r24 30, r25 5, r26 1.67
  Herbicidal action against Echinochloa crus-galli: 15%
28 DAT, g a.i./ha: r62 270, r63 30, r64 15, r65 5
  Herbicidal action against Eleusine indica: 40%
28 DAT, g a.i./ha: r137 270, r138 90, r139 30, r140 5
  Herbicidal action against Polygonum convulvulus: 50%
28 DAT, g a.i./ha: r165 15, r166 90, r167 30
  Herbicidal action against Alopecurus myosuroides (resistant biotype): 60%
28 DAT, g a.i./ha: r220 15, r221 5, r222 270, r223 90
  Herbicidal action against Lolium rigidum (resistant bio type): 0%
28 DAT, g a.i./ha: r294 5, r295 90
  Herbicidal action against Veronica hederifolia: 0%
45 g a.i./ha
  Herbicidal action 28 DAT against Euphorbia heterophylla: 35%
  Herbicidal action 28 DAT against Galium aparine: 50%
  Herbicidal action 28 DAT against Ipomoea purpurea: 10%
post-emergence, single active compound (Glyphosate series), g a.i./ha: r765 50, r767 15
  Herbicidal action 28 DAT [%] against Digitaria sanguinalis: 30%
post-emergence, single active compound (Glyphosate series), g a.i./ha: r786 450, r788 1.67
  Herbicidal action 28 DAT [%] against Setaria viridis: 10%
post-emergence, single active compound (Glyphosate series), g a.i./ha: r796 450, r798 5
  Herbicidal action 28 DAT [%] against Abutilon theophrasti: 0%
post-emergence, single active compound, g a.i./ha: r19 150, r20 50, r21 5
  Herbicidal action 28 DAT [%] against Echinochloa crus-galli: 15%
post-emergence, single active compound, g a.i./ha: r172 5, r173 1.67, r174 450
  Herbicidal action 28 DAT [%] against Bromus sterilis: 0%
post-emergence, single active compound, g a.i./ha: r183 5, r184 50
  Herbicidal action 28 DAT [%] against Galium aparine: 0%
post-emergence, single active compound, g a.i./ha: r204 45, r205 50
  Herbicidal action 28 DAT [%] against Lamium purpureum: 70%
post-emergence, single active compound, g a.i./ha: r214 15, r215 150, r216 50
  Herbicidal action 28 DAT [%] against Lolium rigidum (sensitive biotype): 0%
post-emergence, single active compound, g a.i./ha: r224 15, r225 5, r226 150, r227 50
  Herbicidal action 28 DAT [%] against Lolium rigidum (resistant biotype): 0%
post-emergence, single active compound, g a.i./ha: r235 5, r236 450, r237 50
  Herbicidal action 28 DAT [%] against Papaverrhoeas: 40%
post-emergence, single active compound, g a.i./ha: r282 5, r283 150, r284 50
  Herbicidal action 28 DAT [%] against Raphanus raphanistrum: 80%
post-emergence, single active compound, g a.i./ha: r292 5, r293 150
  Herbicidal action 28 DAT [%] against Veronica hederifolia: 0%

## C[C@]1(C(=O)N[C@H]2CO[C@@H](C(=O)NS(C)(=O)=O)C2)CC(c2cc(F)cc(F)c2)=NO1 (relative stereo) [Compound A2, (5R)-3-(3,5-difluorophenyl)-5-methyl-N-[rel-(3R,5R)-5-(methylsulfonylcarbamoyl)tetrahydrofuran-3-yl]-4H-isoxazole-5-carboxamide]
1.7 g a.i./ha
  Herbicidal action 28 DAT against Brachiaria platyphylla: 0%
  Herbicidal action 28 DAT against Digitaria sanguinalis: 0%
  Herbicidal action 28 DAT against Echinochloa crus-galli: 10%
  Herbicidal action 28 DAT against Eleusine indica: 30%
  Herbicidal action 28 DAT against Sorghum halepense: 0%
5 g a.i./ha
  Herbicidal action 28 DAT against Amaranthus palmeri (res.): 15%
  Herbicidal action 28 DAT against Digitaria sanguinalis: 0%
  Herbicidal action 28 DAT against Echinochloa crus-galli: 20%
  Herbicidal action 28 DAT against Eleusine indica: 35%
  Herbicidal action 28 DAT against Kochia scoparia: 20%
  Herbicidal action 28 DAT against Pharbitis purpurea: 75%
  Herbicidal action 28 DAT against Polygonum convolvulus: 80%
  Herbicidal action 28 DAT against Sorghum halepense: 0%
15 g a.i./ha
  Herbicidal action 28 DAT against Amaranthus palmeri (res.): 65%
  Herbicidal action 28 DAT against Eleusine indica: 45%
  Herbicidal action 28 DAT against Kochia scoparia: 20%
  Herbicidal action 28 DAT against Sorghum halepense: 15%
(Z32) 28 DAT, g a.i./ha: r315 270, r316 90, r317 30, r318 15
  Herbicidal action against Abutilon theophrasti: 20%
(Z32) 28 DAT, g a.i./ha: r337 270, r338 90, r339 30, r340 15
  Herbicidal action against Bidens pilosa: 10%
(Z32) 28 DAT, g a.i./ha: r361 270, r362 90, r363 30, r364 15
  Herbicidal action against Digitaria sanguinalis: 10%
(Z32) 28 DAT, g a.i./ha: r372 270, r373 90, r374 30, r375 5
  Herbicidal action against Echinochloa crus-galli: 20%
(Z32) 28 DAT, g a.i./ha: r396 270, r397 90, r398 15, r399 5
  Herbicidal action against Kochia scoparia: 20%
(Z32) 28 DAT, g a.i./ha: r408 270, r409 90, r410 30, r411 5
  Herbicidal action against Pharbitis purpurea: 75%
(Z32) 28 DAT, g a.i./ha: r419 90, r420 30, r421 5
  Herbicidal action against Polygonum convolvulus: 80%
post-emergence, single active compound (A2 series), g a.i./ha: r326 150, r327 50, r328 5, r329 1.7
  Herbicidal action 28 DAT [%] against Digitaria sanguinalis: 0%
post-emergence, single active compound (A2 series), g a.i./ha: r337 150, r339 5
  Herbicidal action 28 DAT [%] against Eleusine indica: 35%
post-emergence, single active compound (A2 series), g a.i./ha: r347 50, r349 5
  Herbicidal action 28 DAT [%] against Kochia scoparia: 20%
post-emergence, single active compound (A2 series), g a.i./ha: r357 50, r359 5
  Herbicidal action 28 DAT [%] against Polygonum convulvulus: 80%

## C=C[C@]1(C(=O)N[C@H]2CO[C@@H](C(=O)NOC)C2)CC(c2cc(C)cc(F)c2)=NO1 (relative stereo) [Compound A3, (5S)-3-(3-fluoro-5-methylphenyl)-N-[rel-(3R,5R)-5-(methoxycarbamoyl)tetrahydrofuran-3-yl]-5-vinyl-4H-isoxazole-5-carboxamide]
15 g a.i./ha
  Herbicidal action 28 DAT against Amaranthus palmeri (res.): 10%
45 g a.i./ha
  Herbicidal action 28 DAT against Amaranthus palmeri (res.): 20%
  Herbicidal action 28 DAT against Kochia scoparia: 20%
Z61 28 DAT, g a.i./ha: r459 30, r460 15
  Herbicidal action against Abutilon theophrasti: 10%
Z61 28 DAT, g a.i./ha: r467 90, r468 30, r469 15, r470 5
  Herbicidal action against Amaranthus palmeri (res.): 10%
Z61 28 DAT, g a.i./ha: r479 30, r480 1.7
  Herbicidal action against Brachiaria platyphylla: 10%
Z61 28 DAT, g a.i./ha: r487 270, r488 5
  Herbicidal action against Eleusine indica: 70%
post-emergence, single active compound, g a.i./ha: r396 50, r398 5
  Herbicidal action 28 DAT [%] against Pharbitis purpurea: 70%
